# In patent US8680150B2, “Small molecule hematopoietic growth factor mimetic compounds that activate hematopoietic growth factor receptors” (Ligand Pharmaceuticals, Inc., priority 2009, dated 2014):
# System: UT7/EPO Cell line
# Assay: Cell proliferation assay in UT7/EPO cell line (ViaLight Plus)
# Assay type: cell-based, human
# Details: compound at 10 uM, efficacy relative to EPO (100%), UT7/EPO cells expressing endogenous EPO receptor, starved of EPO overnight, 72 hours at 37° C.
# Procedure: The primary testing for the exemplified compounds was performed in UT7/EPO Cell line. UT7/EPO is human leukemia cell line, obtained from Dr. Norio Komatsu (Blood, Vol 82 (2), pp 456-464, 1993). These cells express endogenous EPO receptor and are dependant upon EPO for growth and proliferation. Briefly, the cells were starved of EPO overnight and plated in 96 or 384 well plates. The compounds were added to the cells at 10 uM concentration. The plates were then incubated at 37° C. for 72 hours. The proliferative effect of the compounds was measured by a commercially available kit from Lonza (ViaLight Plus).
smiles,measurement,setting,value
"COc1cccc(/C=N/NC(=O)c2ccc(N(C)C)cc2)c1 [Compound 139, 4-Dimethylaminobenz(3-methoxybenzylidene)hydrazide]",Activity (%),10 µM,7.8%
"Cc1ccc(COCc2cccc(/C=N/NC(=O)c3ccc(N(C)C)cc3)c2)cc1 [Compound 189, 4-Dimethylaminobenz(3-(4-methylbenzyloxy)methylbenzylidene)hydrazide]",Activity (%),,9.1%
"CN(C)c1ccc(C(=O)N/N=C/c2cccc(OCCO)c2)cc1 [Compound 195, 4-Dimethylaminobenz(3-(2-hydroxyethoxy)benzylidene)hydrazide]",Activity (%),,7.3%
"COc1cccc(/C=N/NC(=O)c2ccc(-c3ccccc3)cc2)c1 [Compound 140, 4-Phenylbenz(3-methoxybenzylidene)hydrazide]",Activity (%),,14%
"COc1ccc2c(c1)cc(C(=O)N/N=C/c1ccc(O)cc1)n2C [Compound 121, (1-Methyl-5-methoxyindole-2-)carboxyl(4-hydroxybenzylidene)hydrazide]",Activity (%),,12%
"CC1=NN(c2ccc3ccccc3n2)C(=O)/C1=N\Nc1ccc(O)cc1 [Compound 108, 4-(4-Hydroxyphenyl)hydrazono-1-(2-quinolino)-3-methyl-5-pyrazolone]",Activity (%),,2.4%
"O=C(N/N=C/c1cccc(/C=N/OCc2ccccc2)c1)c1ccc(-n2ccnc2)cc1 [Compound 194, 4-(1-Imidazolyl)benz(3-benzyloxyiminomethylbenzylidene)hydrazide]",Activity (%),,5.2%
"COc1cccc(/C=N/NC(=O)c2ccc(-n3cccc3)cc2)c1 [Compound 135, 4-(1-Pyrrolyl)benz(3-methoxybenzylidene)hydrazide]",Activity (%),,12%
"COc1ccc(O)c(/C=N/NC(=O)c2cc3cc(O)ccc3[nH]2)c1 [Compound 175, 5-Hydroxyindole-2-carboxyl(2-hydroxy-5-methoxybenzylidene)hydrazide]",Activity (%),,4.3%
"COc1cccc(/C=N/NC(=O)c2ccc(OCc3ccccc3)cc2)c1 [Compound 149, 4-Benzyloxybenz(3-methoxybenzylidene)hydrazide]",Activity (%),,9.7%
"COc1cccc(/C=N/NC(=O)c2ccc(OCc3ccc(Br)cc3)cc2)c1 [Compound 142, 4-(4-Bromobenzyloxy)benz(3-methoxybenzylidene)hydrazide]",Activity (%),,6.0%
"COc1cccc(/C=N/NC(=O)c2ccc(OCc3ccc4ccccc4c3)cc2)c1 [Compound 157, 4-(2-Naphthylmethoxy)benz(3-methoxybenzylidene)hydrazide]",Activity (%),,9.9%
"COCc1cccc(/C=N/NC(=O)c2cc3cc(O)ccc3o2)c1 [Compound 176, 5-Hydroxybenzofuran-2-carboxyl(3-methoxymethylbenzylidene)hydrazide]",Activity (%),,19%
"Cc1cccc(C(=O)N/N=C/c2ccccc2O)c1 [Compound 124, 3-Methylbenz(2-hydroxybenzylidene)hydrazide]",Activity (%),,3.4%
"COc1cccc(/C=N/NC(=O)c2ccc(OCc3cccc(OC)c3)cc2)c1 [Compound 155, 4-(3-Methoxybenzyloxy)benz(3-methoxybenzylidene)hydrazide]",Activity (%),,11%
"COc1ccc(O)c(/C=N/NC(=O)c2cc3cc(OC)ccc3[nH]2)c1 [Compound 172, 5-Methoxyindole-2-carboxyl(2-hydroxy-5-methoxybenzylidene)hydrazide]",Activity (%),,9.8%
"CN(C)c1ccc(C(=O)N/N=C/c2cccc(/C=N/OCc3ccccc3)c2)cc1 [Compound 190, 4-Dimethylaminobenz(3-benzyloxyiminomethylbenzylidene)hydrazide]",Activity (%),,20%
"C=CCO/N=C/c1cccc(/C=N/NC(=O)c2ccc(N(C)C)cc2)c1 [Compound 192, 4-Dimethylaminobenz(3-allyloxyiminomethylbenzylidene)hydrazide]",Activity (%),,5.3%
"COc1cccc(/C=N/NC(=O)c2ccc(-n3ccnc3)cc2)c1 [Compound 193, 4-(1-Imidazolyl)benz(3-methoxybenzylidene)hydrazide]",Activity (%),,7.3%
"C=Cc1ccc(COc2ccc(C(=O)N/N=C/c3cccc(OC)c3)cc2)cc1 [Compound 156, 4-(4-Vinylbenzyloxy)benz(3-methoxybenzylidene)hydrazide]",Activity (%),,7.9%
"COc1ccc(O)c(/C=N/NC(=O)c2ccc(-c3ccccc3)cc2)c1 [Compound 151, 4-Phenylbenz(2-hydroxy-5-methoxybenzylidene)hydrazide]",Activity (%),,6.3%
"COc1cccc(/C=N/NC(=O)c2ccc(OCc3cccc(Cl)c3)cc2)c1 [Compound 153, 4-(3-Chlorobenzyloxy)benz(3-methoxybenzylidene)hydrazide]",Activity (%),,5.3%
"COc1ccc(O)c(/C=N/NC(=O)COc2ccc3[nH]ccc3c2)c1 [Compound 173, 5-Indolyloxoacet(2-hydroxy-5-methoxybenzylidene)hydrazide]",Activity (%),,12%
"COc1ccc(/C=N/NC(=O)c2ccc(N3CCCC3=O)cc2)cc1 [Compound 131, 4-(2-Oxopyrrolidino-1-)benz(4-methoxybenzylidene)hydrazide]",Activity (%),,15%
"COc1cc(/C=N/NC(=O)c2ccc(OCc3ccc(C)cc3)cc2)cc(OC)c1OC [Compound 136, 4-(4-Methylbenzyloxy)benz(3,4,5-trimethoxybenzylidene)hydrazide]",Activity (%),,4.8%
"COc1cccc(/C=N/NC(=O)c2ccc(-c3ccccc3F)cc2)c1 [Compound 161, 4-(2-Fluorophenyl)phenylbenz(3-methoxybenzylidene)hydrazide]",Activity (%),,12%
"COCc1cccc(/C=N/NC(=O)c2ccc(N(C)C)cc2)c1 [Compound 187, 4-Dimethylaminobenz(3-methoxymethylbenzylidene)hydrazide]",Activity (%),,17%
"COc1cccc(/C=N/NC(=O)c2ccc(OCc3ccc(F)cc3)cc2)c1 [Compound 143, 4-(4-Fluorobenzyloxy)benz(3-methoxybenzylidene)hydrazide]",Activity (%),,14%
"CN(C)c1ccc(/C=N/NC(=O)c2ccc(N3CCCC3=O)cc2)cc1 [Compound 127, 4-(2-Oxopyrrolidino-1-)benz(4-dimethylaminobenzylidene)hydrazide]",Activity (%),,6.8%
"C=Cc1cccc(/C=N/NC(=O)c2ccc(N(C)C)cc2)c1 [Compound 167, 4-Dimethylaminobenz(3-vinylbenzylidene)hydrazide]",Activity (%),,11%
"O=C(N/N=C/c1cccc(/C=C/c2ccccc2Cl)c1)c1ccc(-n2ccnc2)cc1 [Compound 191, 4-(1-Imidazolyl)benz(2E-(2-chlorophenyl)ethenylbenzylidene)hydrazide]",Activity (%),,6.2%
"CCCCCCCCCCCCCCCCCC(=O)N/N=C/c1cc(OC)ccc1O [Compound 148, Octadecano(2-hydroxy-5-methoxybenzylidene)hydrazide]",Activity (%),,7.1%
"COc1cc(/C=N/NC(=O)c2ccc(-c3ccccc3)cc2)cc(OC)c1 [Compound 160, 4-Phenylbenz(3,5-dimethoxybenzylidene)hydrazide]",Activity (%),,6.1%
"COc1cccc(/C=N/NC(=O)c2ccc(NCCO)cc2)c1 [Compound 199, 4-(2-Hydroxyethylamino)benz(3-methoxybenzylidene)hydrazide]",Activity (%),,3.0%
"O=C(N/N=C/c1ccc2[nH]ccc2c1)c1ccc(-c2ccccc2)cc1 [Compound 163, 4-Phenylbenz(5-indolidene)hydrazide]",Activity (%),,23%
"COc1cc(/C=N/NC(=O)c2ccc(N3CCCC3=O)cc2)ccc1O [Compound 130, 4-(2-Oxopyrrolidino-1-)benz(4-hydroxy-3-methoxybenzylidene)hydrazide]",Activity (%),,20%
"COc1cc(/C=N/NC(=O)c2ccc(-c3ccccc3)cc2)ccc1F [Compound 159, 4-Phenylbenz(4-fluoro-3-methoxybenzylidene)hydrazide]",Activity (%),,8.9%
"O=C(N/N=C/c1ccccc1O)c1ccc(N2CCCC2=O)cc1 [Compound 123, 4-(2-Oxopyrrolidino-1-)benz(2-hydroxybenzylidene)hydrazide]",Activity (%),,5.1%
"O=C(N/N=C/c1ccc2ccccc2c1)c1ccc(-c2ccccc2)cc1 [Compound 125, 4-Phenylbenz(2-naphthylidene)hydrazide]",Activity (%),,15%
"C=Cc1cccc(/C=N/NC(=O)c2ccc(-c3ccccc3)cc2)c1 [Compound 164, 4-Phenylbenz(3-vinylbenzylidene)hydrazide]",Activity (%),,11%
"COc1ccc(O)c(/C=N/NC(=O)c2ccc(N3CCCC3=O)cc2)c1 [Compound 129, 4-(2-Oxopyrrolidino-1-)benz(2-hydroxy-5-methoxybenzylidene)hydrazide]",Activity (%),,23%
"CN(C)c1ccc(C(=O)N/N=C/c2cccc(CO)c2)cc1 [Compound 171, 4-Dimethylaminobenz(3-hydroxymethylbenzylidene)hydrazide]",Activity (%),,16%
"CN(C)c1ccc(C(=O)N/N=C/c2cccc(/C=C/c3ccccc3)c2)cc1 [Compound 170, 4-Dimethylaminobenz(3-(2E-phenylethenyl)benzylidene)hydrazide]",Activity (%),,4.7%
"Cc1ccccc1/C=C/c1cccc(/C=N/NC(=O)c2ccc(N(C)C)cc2)c1 [Compound 181, 4-Dimethylaminobenz(2E-(2-methylphenyl)ethenylbenzylidene)hydrazide]",Activity (%),,4.2%
"COc1cccc(/C=N/NC(=O)c2ccc(-c3cnco3)cc2)c1 [Compound 150, 4-(4-Oxazolyl)benz(3-methoxybenzylidene)hydrazide]",Activity (%),,4.5%
"CN(C)c1ccc(C(=O)N/N=C/c2cccc(/C=C/c3cccc(Cl)c3)c2)cc1 [Compound 182, 4-Dimethylaminobenz(2E-(3-chlorophenyl)ethenylbenzylidene)hydrazide]",Activity (%),,11%
